The test system of series [1] is spontaneously hypertensive rats (SHRs). The series can be described thus: Blood pressure and heart rate in spontaneously hypertensive rats, tail-cuff method. The series is classed as in vivo, rat. To be noted: 100 mg once a day for seven days; for change in heart rate: FIG. 6 (TAS-108), FIG. 7 (raloxifene). How it is done: TAS-108 (100 mg) was administered to nine-week-old spontaneously hypertensive rats (SHRs) once a day for consecutive seven days. Before final administration of the test drug, and 30 minutes, one hour, two hours, and four hours after the final administration, blood pressure was measured in a state where heart rate is constant by means of an […] automatic rat/mouse blood pressure measuring apparatus (BP-97A, product of Softron) according to the tail-cuff method (J. Lab. Clin. Med. 1971; 78: 957-962). For comparison, a solvent (0.5% HPMC) or raloxifene, serving as a control drug, was administered in a dose of 100 mg once a day for consecutive seven days.
Percent increase/decrease in blood pressure after final administration of the test drug was obtained on the basis of the blood pressure as measured before final administration of the drug, and the thus-obtained values were compared with one another.

Series [2] relates to postmenopausal hypertensive patients. To be noted: 142±13 mmHg before; cited from earlier work.
In series [3] the test system is postmenopausal breast cancer patients. Kind of series: Blood pressure in postmenopausal breast cancer patients given oral TAS-108. The series is classed as in vivo, human. Here is the method: TAS-108 (40 mg, 80 mg, or 120 mg) was orally administered to postmenopausal breast cancer patients (age: 50 to 78) once a day after breakfast for up to eight weeks. Blood pressure was measured in a sitting position before administration on the day of initiation of administration, and two weeks, four weeks, and eight weeks after initiation of administration.

In a further series the test system is estrogen receptor (ER). To be noted: cited from earlier work.
The next series concerns the target T1, estrogen receptor α (Homo sapiens, UniProt P03372).
T1 sequence (P03372 1-595): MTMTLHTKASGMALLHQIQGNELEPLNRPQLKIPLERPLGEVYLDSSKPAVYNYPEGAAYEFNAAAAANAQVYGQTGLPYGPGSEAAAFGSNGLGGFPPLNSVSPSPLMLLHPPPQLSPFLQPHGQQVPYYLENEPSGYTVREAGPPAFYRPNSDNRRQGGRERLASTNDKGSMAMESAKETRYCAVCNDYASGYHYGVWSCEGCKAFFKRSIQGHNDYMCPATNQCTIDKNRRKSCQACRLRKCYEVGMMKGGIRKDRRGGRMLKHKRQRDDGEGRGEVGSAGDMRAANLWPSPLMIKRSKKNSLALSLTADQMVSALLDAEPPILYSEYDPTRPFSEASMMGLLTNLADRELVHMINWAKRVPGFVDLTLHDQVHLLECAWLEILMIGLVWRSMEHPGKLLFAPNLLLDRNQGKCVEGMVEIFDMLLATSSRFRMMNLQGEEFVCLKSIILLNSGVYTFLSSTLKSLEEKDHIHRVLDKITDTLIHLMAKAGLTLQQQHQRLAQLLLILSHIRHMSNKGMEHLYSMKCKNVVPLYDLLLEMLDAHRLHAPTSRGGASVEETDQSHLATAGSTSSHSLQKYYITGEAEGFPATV
To be noted: cited from earlier work.

[4] abbreviates: SHR, during the course of measurement, FIG. 7.
The mark [5] stands for this setting: SHR, relative to pressure before final administration, FIG. 5.

SMILES strings stand for the structures.

As for `O=C(c1ccc(OCCN2CCCCC2)cc1)c1c(-c2ccc(O)cc2)sc2cc(O)ccc12` [raloxifene, reference compound], the “change in heart rate” value in series [1] (SHR) is “no considerable change”. In series [1] (setting [4]), the “change in diastolic blood pressure” value was “no considerable change”, the “change in mean blood pressure” value is “no considerable change” and the “change in systolic blood pressure” value was “no considerable change”. The “systolic blood pressure after administration” value in series [2] is given as 139±10 mmHg.
In the case of `CCN(CC)Cc1ccc(OCC[C@H]2CCC3C4C(CC[C@@]32C)c2ccc(O)cc2C[C@H]4C)c(OC)c1` (stereo partly drawn) [TAS-108, (7α)-21-[4-[(Diethylamino)methyl]-2-methoxyphenoxy]-7-methyl-19-norpregna-1,3,5(10)-trien-3-ol], in series [3] (four hypertensive patients (systolic 140 mmHg or higher or diastolic 90 mmHg or higher), 40, 80 or 120 mg orally once a day, two to four weeks after initiation, FIGS. 1 to 3), the “systolic or diastolic blood pressure” value is reported as “reduced to fall within a normal pressure range”. For the same compound, in series [3] (remaining 11 breast cancer patients with normal blood pressure, during the course of administration, FIG. 4), the “change in blood pressure” value is “no considerable change in blood pressure”. Further, the “reduction of systolic blood pressure” value in series [3] (typical hypertensive patient (FIG. 2), four weeks after initiation of administration) is reported as “about 40 mmHg”. The “systolic blood pressure after administration” value in series [3] (typical hypertensive patient (FIG. 2), four weeks after initiation, 180 mmHg before administration) is recorded as 138 mmHg. Besides, the “change in heart rate” value in series [1] (SHR) is “No considerable change in heart rate”. In addition, the “time of maximum percent decrease in blood pressure” value in series [1] (SHR, after final administration, FIG. 5) was “two hours after administration”. In series [1] (setting [5]), the “reduction of diastolic blood pressure” value was found to be 46.9% and the “reduction of mean blood pressure” value is given as 28.6%. In addition, the blood pressure entry in series [1] (all SHRs, one to two hours after final administration) is recorded as “blood pressure was reduced”. Further, in the series on estrogen receptor (ER), the “affinity to estrogen receptor (ER)” value is “strong affinity”. At estrogen receptor α, the “agonistic effect on estrogen receptor α” value is listed as “virtually no agonistic effect” and the “antagonistic effect on estrogen receptor α” value was “potent antagonistic effect”.

The values above are taken from patent US9650408B2, “Therapeutic agent for hypertension” (SRI INTERNATIONAL, priority 2005, dated 2017).
